Positions count from the first letter of the chain named.
Key:
[1] = Glucuronidation by human liver microsomes (HLM); format: in vitro ADME; conditions: pooled human liver microsomes (HLM), pH 7.4; human hepatic microsomes
Protocol: A commercial HLM pool (cat no:452210, BD Gentest, Bedford, MA) and human intestine microsomes (HIM) pool (lot. no 1110189, XenoTech, Kansas City, KS) were purchased. Pig liver samples were prepared from untreated female pigs that were used for practicing surgical procedures at the University of Kuopio (currently: University of Eastern Finland, Kuopio campus). Other animal liver microsomes were prepared as described previously.[41] The Ethics Committee for Animal Experiments, University of Kuopio, approved these experiments.
(§1) The incubation mixtures for glucuronidation assays contained 100 mM Tris-HCl buffer pH 7.4, 2.5 mM MgCl2, 0.5 mM UDPGA, recombinant UGT, or microsomes as the enzyme source and 0–15 μM of the test aglycone substrate. When the incubation mixtures contained microsomes, alamethicin was used at a final concentration of 12.5 μg/mL, but it was not included in the recombinant enzyme assays.[43] In the first experiments three negative control samples were tested, namely (i) without the substrate 7-hydroxycoumarin derivative, (ii) without the cofactor UDPGA, or (iii) without the enzyme source. In subsequent experiments, the control samples lacked the enzyme source since it gave the highest fluorescence background. Preliminary experiments were done under different conditions than most of the later assays, namely in 2.5 mL of 100 mM phosphate buffer pH 7.4, containing 500 μg pig liver microsomes, 1.0 μM compound 6 and 0.5 mM UDPGA, at room temperature. Fluorescence spectra (excitation 200–420 nm; emission 400–600 nm) or fluorescence decrease at 390 nm excitation and 460 nm emission, were measured in these preliminary experiments, using a Shimadzu RF-5000 spectrophotofluorometer.
Most of the glucuronidation assays were carried out in 96 multiwell plate format, and incubations were carried out in 100 μL and at 37 °C, in the presence of Tris–HCl buffer pH 7.4, UDPGA, and the tested 7-hydroxycoumarin derivative, at the indicated concentrations. Fluorescence decline in the multiwell plate experiments was monitored every other minute, for 40 min, using an excitation filter at 405 nm and detection at 460 nm, in a Victor2 1420 Multilabel counter (PerkinElmer, Life Sciences, Turku, Finland). The fluorescence values were transformed into molarity using the aglycone substrates for making the respective standard curves. Slopes of the substrate concentration decrease per minute were calculated using linear regression analysis, in which the linear part of the kinetic assay indicated the glucuronidation rate. Enzyme catalyzed glucuronidation rate was calculated by subtracting the blank value from the full reaction value. The intra-assay variability of the kinetic assays was 6% when compound 6 was used as the aglycone substrate. Kinetic analyses were also performed in the same 96 multiwell plates format, with excitation filter at 405 nm and detection at 460 nm, using 6–8 different substrate concentrations per substrate and two different protein concentrations for both the wild-type and mutant UGT1A10. The higher concentrations, 13.5 mg/L for UGT1A10 and 12.0 mg/L for the UGT1A10 mutant, were used when the substrates were HFC, compounds 4 and 6, whereas the lower protein concentrations, 6.75 and 6.0 mg/L for UGT1A10 and the mutant, respectively, were used when the substrates were compounds 1, 2, 3, and 5.

UGT1A10 = target: T1, UGT1A10 (Homo sapiens, UniProt Q9HAW8); assay: Glucuronidation kinetics by recombinant wild-type UGT1A10 (fluorescence decrease, 96-well plate); format: biochemical
T1 construct: His-tag; made in house; host or cells: baculovirus-infected insect cells
T1 sequence (Q9HAW8 26-530): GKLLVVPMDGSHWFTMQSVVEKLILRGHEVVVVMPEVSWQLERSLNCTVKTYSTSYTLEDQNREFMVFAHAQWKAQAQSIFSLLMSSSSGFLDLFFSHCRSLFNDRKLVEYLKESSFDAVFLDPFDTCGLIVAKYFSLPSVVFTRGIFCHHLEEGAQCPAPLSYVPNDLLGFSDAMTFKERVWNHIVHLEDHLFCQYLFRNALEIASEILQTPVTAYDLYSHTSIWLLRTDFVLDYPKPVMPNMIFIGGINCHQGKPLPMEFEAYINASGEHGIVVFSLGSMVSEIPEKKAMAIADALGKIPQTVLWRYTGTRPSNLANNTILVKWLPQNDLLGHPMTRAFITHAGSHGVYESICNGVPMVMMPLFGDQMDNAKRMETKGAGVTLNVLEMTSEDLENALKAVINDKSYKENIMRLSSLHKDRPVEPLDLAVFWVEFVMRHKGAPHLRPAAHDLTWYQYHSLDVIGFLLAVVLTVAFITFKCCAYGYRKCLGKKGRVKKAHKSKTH
Protocol: Recombinant human UGTs 1A1, 1A3, 1A6, 1A7, 1A8, 1A9, 1A10, 2A1, 2A2, 2A3, 2B4, 2B10, 2B7, and 2B17 were produced, as His-tagged proteins, in baculovirus-infected insect cells as previously described.[37]−[39] The relative expression level of each of these recombinant UGTs was evaluated by immunodetection, using monoclonal antibody against the His-tag, as described elsewhere.[40] A numeric value of 1.0 was given to the expression level of UGT1A8 and the relative expression level of each of the other UGTs was related to this value. Normalized activities were obtained by dividing the glucuronidation rate values by the relative expression level of the tested UGT. […] The expression levels of the UGTs in the commercial samples could not be determined, so their protein concentration was used to calculate the reaction rate.
The incubation mixtures for glucuronidation assays contained 100 mM Tris-HCl buffer pH 7.4, 2.5 mM MgCl2, 0.5 mM UDPGA, recombinant UGT, or microsomes as the enzyme source and 0–15 μM of the test aglycone substrate. […] In subsequent experiments, the control samples lacked the enzyme source since it gave the highest fluorescence background. […] Fluorescence spectra (excitation 200–420 nm; emission 400–600 nm) or fluorescence decrease at 390 nm excitation and 460 nm emission, were measured in these preliminary experiments, using a Shimadzu RF-5000 spectrophotofluorometer. […]

[2] = target: T2, UGT1A10 mutant 1A10-H210M (Homo sapiens, UniProt Q9HAW8, H210M); assay: Glucuronidation kinetics by UGT1A10 mutant 1A10-H210M (fluorescence decrease, 96-well plate); format: biochemical; conditions: mutant versus wild-type UGT1A10
T2 construct: His-tag; made in house; host or cells: baculovirus-infected SF9 insect cells
T2 sequence (Q9HAW8 26-530 H210M): T1 sequence (Q9HAW8 26-530) with H185M
Protocol: The UGT1A10 mutant 1A10-H210 M was prepared according to the QuikChange methodology, using the cloned UGT1A10 in pFastBac[42] as a template and the following two oligonucleotides:
The entire coding sequence of UGT1A10 in the mutant clone was sequenced, and subsequently, recombinant baculovirus was prepared and used to express the mutant enzyme in baculovirus-infected SF9 insect cells.
as §1, with “Preliminary experiments were done under different conditions than most of the later assays, namely in 2.5 mL of 100 mM phosphate buffer pH 7.4, containing 500 μg pig liver microsomes, 1.0 μM compound 6 and 0.5 mM UDPGA, at room temperature.” left out
Most of the glucuronidation assays were carried out in 96 multiwell plate format, and incubations were carried out in 100 μL and at 37 °C, in the presence of Tris–HCl buffer pH 7.4, UDPGA, and the tested 7-hydroxycoumarin derivative, at the indicated concentrations. Fluorescence decline in the multiwell plate experiments was monitored every other minute, for 40 min, using an excitation filter at 405 nm and detection at 460 nm, in a Victor2 1420 Multilabel counter (PerkinElmer, Life Sciences, Turku, Finland). The fluorescence values were transformed into molarity using the aglycone substrates for making the respective standard curves. […] Enzyme catalyzed glucuronidation rate was calculated by subtracting the blank value from the full reaction value. […]

Km [1]: 82 µM | Intrinsic glucuronidation clearance (Vmax/Km) by UGT1A10 relative to compounds 1–5 (UGT1A10): less than 30% | Change of Km by the H210M mutation (in words) [2]: considerably increased
SMILES: O=c1oc2cc(O)ccc2cc1-n1cncn1 [Compound 6, 7-Hydroxy-3-(1H-1,2,4-triazol-1-yl)-2H-chromen-2-one]

Source: PMC6150735, “Molecular Docking-Based Design and Development of a Highly Selective Probe Substrate for UDP-glucuronosyltransferase 1A10” (Molecular Pharmaceutics, 2018)
